Experimental data taken from PubChem BioAssay (NCI).
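Cultured in 96-well plates, cells were exposed to test compound for 48 hours across five concentrations. TGI marks complete inhibition of growth.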

Legend:
Assay in all cases: DTP human tumour cell line panel, 48 h
UACC-62 melanoma = tested on: UACC-62 melanoma
OVCAR-3 ovarian = tested on: OVCAR-3 ovarian
NCI-H226 lung = tested on: NCI-H226 lung
NCI-H460 lung = tested on: NCI-H460 lung
MDA-MB-231 breast = tested on: MDA-MB-231 breast
HL-60(TB) leukemia = tested on: HL-60(TB) leukemia
HCC-2998 colon = tested on: HCC-2998 colon
NCI/ADR-RES ovarian = tested on: NCI/ADR-RES ovarian
CAKI-1 renal = tested on: CAKI-1 renal
SK-MEL-28 melanoma = tested on: SK-MEL-28 melanoma
MOLT-4 leukemia = tested on: MOLT-4 leukemia
HS 578T breast = tested on: HS 578T breast
A498 renal = tested on: A498 renal
BT-549 breast = tested on: BT-549 breast
OVCAR-5 ovarian = tested on: OVCAR-5 ovarian
A549 NSCLC = tested on: A549 NSCLC
EKVX NSCLC = tested on: EKVX NSCLC
MDA-N = tested on: MDA-N
K-562 leukemia = tested on: K-562 leukemia
COLO 205 colon = tested on: COLO 205 colon
SF-295 CNS = tested on: SF-295 CNS
SW-620 colon = tested on: SW-620 colon
ACHN renal = tested on: ACHN renal
SF-268 CNS = tested on: SF-268 CNS
HOP-62 NSCLC = tested on: HOP-62 NSCLC
SNB-75 CNS = tested on: SNB-75 CNS
TK-10 renal = tested on: TK-10 renal
SK-MEL-5 melanoma = tested on: SK-MEL-5 melanoma
HCT-15 colon = tested on: HCT-15 colon
SNB-19 CNS = tested on: SNB-19 CNS
NCI-H522 lung = tested on: NCI-H522 lung
HCT-116 colon = tested on: HCT-116 colon
LOX IMVI melanoma = tested on: LOX IMVI melanoma
HOP-92 NSCLC = tested on: HOP-92 NSCLC
MDA-MB-435 = tested on: MDA-MB-435
SF-539 CNS = tested on: SF-539 CNS
KM12 colon = tested on: KM12 colon
OVCAR-4 ovarian = tested on: OVCAR-4 ovarian
RPMI-8226 leukemia = tested on: RPMI-8226 leukemia
UACC-257 melanoma = tested on: UACC-257 melanoma
RXF 393 renal = tested on: RXF 393 renal
SN12C renal = tested on: SN12C renal
OVCAR-8 ovarian = tested on: OVCAR-8 ovarian
DU-145 prostate = tested on: DU-145 prostate
PC-3 prostate = tested on: PC-3 prostate
MCF7 breast = tested on: MCF7 breast
HT29 colon = tested on: HT29 colon
U251 CNS = tested on: U251 CNS
MALME-3M melanoma = tested on: MALME-3M melanoma
T-47D breast = tested on: T-47D breast
786-0 renal = tested on: 786-0 renal
SK-MEL-2 melanoma = tested on: SK-MEL-2 melanoma
M14 melanoma = tested on: M14 melanoma
SK-OV-3 ovarian = tested on: SK-OV-3 ovarian
SR leukemia = tested on: SR leukemia
IGROV1 ovarian = tested on: IGROV1 ovarian
NCI-H23 lung = tested on: NCI-H23 lung
CCRF-CEM leukemia = tested on: CCRF-CEM leukemia
UO-31 renal = tested on: UO-31 renal

## C=C(C)C(=O)OC1C[C@H](COC(C)=O)C2CC=C(C)C2C2OC(=O)C(=C)[C@H]12 (stereo partly drawn)
UACC-62 melanoma
  TGI: 16.7 µM
OVCAR-3 ovarian
  TGI: 5.3 µM
NCI-H226 lung
  TGI: 31.8 µM
NCI-H460 lung
  TGI: 34.4 µM
MDA-MB-231 breast
  TGI: 13.5 µM
HL-60(TB) leukemia
  TGI: 2.83 µM
HCC-2998 colon
  TGI: 29.2 µM
NCI/ADR-RES ovarian
  TGI: 6.23 µM
CAKI-1 renal
  TGI: 7 µM
SK-MEL-28 melanoma
  TGI: 7.08 µM
MOLT-4 leukemia
  TGI: 5.24 µM
HS 578T breast
  TGI: 14 µM
A498 renal
  TGI: 27.8 µM
BT-549 breast
  TGI: 14.4 µM
OVCAR-5 ovarian
  TGI: 25.5 µM
A549 NSCLC
  TGI: 34.2 µM
EKVX NSCLC
  TGI: 23.4 µM
MDA-N
  TGI: 10.3 µM
K-562 leukemia
  TGI: 5.56 µM
COLO 205 colon
  TGI: 6.17 µM
SF-295 CNS
  TGI: 33.8 µM
SW-620 colon
  TGI: 6.53 µM
ACHN renal
  TGI: 11.8 µM
SF-268 CNS
  TGI: 7.21 µM
HOP-62 NSCLC
  TGI: 27.7 µM
SNB-75 CNS
  TGI: 24.2 µM
TK-10 renal
  TGI: 18.1 µM
SK-MEL-5 melanoma
  TGI: 20.3 µM
HCT-15 colon
  TGI: 5.17 µM
SNB-19 CNS
  TGI: 31.8 µM
NCI-H522 lung
  TGI: 3.06 µM
HCT-116 colon
  TGI: 3.3 µM
LOX IMVI melanoma
  TGI: 4.86 µM
HOP-92 NSCLC
  TGI: 5.9 µM
MDA-MB-435
  TGI: 10.9 µM
SF-539 CNS
  TGI: 10.1 µM
KM12 colon
  TGI: 24.2 µM
OVCAR-4 ovarian
  TGI: 5.57 µM
RPMI-8226 leukemia
  TGI: 2.61 µM
UACC-257 melanoma
  TGI: 13.2 µM
RXF 393 renal
  TGI: 14.1 µM
SN12C renal
  TGI: 13.1 µM
OVCAR-8 ovarian
  TGI: 13.3 µM
DU-145 prostate
  TGI: 16.5 µM
PC-3 prostate
  TGI: 15.1 µM
MCF7 breast
  TGI: 14.7 µM
HT29 colon
  TGI: 18 µM
U251 CNS
  TGI: 22.1 µM
MALME-3M melanoma
  TGI: 2.55 µM
T-47D breast
  TGI: 20.8 µM
786-0 renal
  TGI: 7.26 µM
SK-MEL-2 melanoma
  TGI: 15.9 µM
M14 melanoma
  TGI: 4.23 µM
SK-OV-3 ovarian
  TGI: 31 µM
SR leukemia
  TGI: 5.07 µM
IGROV1 ovarian
  TGI: 25.5 µM
NCI-H23 lung
  TGI: 14.2 µM
CCRF-CEM leukemia
  TGI: 5.03 µM
UO-31 renal
  TGI: 4.91 µM

## CCCOc1cc2c(cc1O)CC[C@@H]1[C@@H]2CC[C@]2(C)[C@@H](O)CC[C@@H]12
UACC-62 melanoma
  TGI: 30.8 µM
OVCAR-3 ovarian
  TGI: > 46.2 µM
NCI-H226 lung
  TGI: 55 µM
NCI-H460 lung
  TGI: 26.5 µM
MDA-MB-231 breast
  TGI: 27.7 µM
HL-60(TB) leukemia
  TGI: 18.9 µM
HCC-2998 colon
  TGI: 17.6 µM
NCI/ADR-RES ovarian
  TGI: 39 µM
CAKI-1 renal
  TGI: 23.5 µM
SK-MEL-28 melanoma
  TGI: > 50.4 µM
MOLT-4 leukemia
  TGI: 14.2 µM
HS 578T breast
  TGI: 11.3 µM
A498 renal
  TGI: 20.7 µM
BT-549 breast
  TGI: 20.1 µM
OVCAR-5 ovarian
  TGI: > 65.4 µM
A549 NSCLC
  TGI: > 56.3 µM
EKVX NSCLC
  TGI: > 57.7 µM
MDA-N
  TGI: 2.14 µM
K-562 leukemia
  TGI: 5.33 µM
COLO 205 colon
  TGI: 30 µM
SF-295 CNS
  TGI: 14.7 µM
SW-620 colon
  TGI: > 35.5 µM
ACHN renal
  TGI: > 56.2 µM
SF-268 CNS
  TGI: > 59.7 µM
HOP-62 NSCLC
  TGI: 14.1 µM
SNB-75 CNS
  TGI: 32.4 µM
TK-10 renal
  TGI: 54.7 µM
SK-MEL-5 melanoma
  TGI: 12.1 µM
HCT-15 colon
  TGI: > 35.3 µM
SNB-19 CNS
  TGI: > 100 µM
NCI-H522 lung
  TGI: 3.52 µM
HCT-116 colon
  TGI: 42 µM
LOX IMVI melanoma
  TGI: 34.5 µM
HOP-92 NSCLC
  TGI: > 60.4 µM
MDA-MB-435
  TGI: 5.91 µM
SF-539 CNS
  TGI: 4.44 µM
KM12 colon
  TGI: > 55.5 µM
OVCAR-4 ovarian
  TGI: > 65.5 µM
RPMI-8226 leukemia
  TGI: 23.7 µM
UACC-257 melanoma
  TGI: > 58.7 µM
RXF 393 renal
  TGI: 10.4 µM
SN12C renal
  TGI: 37.8 µM
OVCAR-8 ovarian
  TGI: > 59.1 µM
DU-145 prostate
  TGI: 27.2 µM
PC-3 prostate
  TGI: > 51.6 µM
MCF7 breast
  TGI: 37.2 µM
HT29 colon
  TGI: 25.9 µM
U251 CNS
  TGI: 34.2 µM
MALME-3M melanoma
  TGI: > 100 µM
T-47D breast
  TGI: > 45 µM
786-0 renal
  TGI: 30.5 µM
SK-MEL-2 melanoma
  TGI: 11.3 µM
M14 melanoma
  TGI: 36.8 µM
SK-OV-3 ovarian
  TGI: 50.5 µM
SR leukemia
  TGI: 16.7 µM
IGROV1 ovarian
  TGI: > 100 µM
NCI-H23 lung
  TGI: > 55.5 µM
CCRF-CEM leukemia
  TGI: > 37.4 µM
UO-31 renal
  TGI: > 57.2 µM
